“And” between values parts separate entries of the source, which are not always exact repeats. Equal entries are not always repeated.
Details: 343.15 K, Liquid, Vibrating tube method

CCCCCCC(=O)OCC(COC(=O)CCCCCC)(COC(=O)CCCCCC)COC(=O)CCCCCC [pentaerythritol tetraheptanoate]
Details | mass density
23684 kPa | 957.2 kg/m3
23715 kPa | 957.3 kg/m3
23750 kPa | 957.4 kg/m3
23753 kPa | 957.2 kg/m3
23785 kPa | 957.4 kg/m3
23818 kPa | 957.3 kg/m3
23850 kPa | 957.4 kg/m3
23889 kPa | 957.4 kg/m3
23920 kPa | 957.3 kg/m3
23952 kPa | 957.4 kg/m3
23991 kPa | 957.4 kg/m3
24024 kPa | 957.5 kg/m3
24056 kPa | 957.6 kg/m3
24094 kPa | 957.5 kg/m3
24127 kPa | 957.6 kg/m3
24128 kPa | 957.6 kg/m3
24160 kPa | 957.5 kg/m3
24199 kPa | 957.7 kg/m3
24200 kPa | 957.5 kg/m3
24232 kPa | 957.6 kg/m3
24233 kPa | 957.6 kg/m3
24265 kPa | 957.6 kg/m3
24266 kPa | 957.8 kg/m3
24299 kPa | 957.6 kg/m3
24306 kPa | 957.6 kg/m3
24334 kPa | 957.8 kg/m3
24339 kPa | 957.7 kg/m3
24372 kPa | 957.7 kg/m3
24373 kPa | 957.8 kg/m3
24407 kPa | 957.7 kg/m3
24411 kPa | 957.8 kg/m3
24440 kPa | 957.7 kg/m3
24445 kPa | 957.8 kg/m3
24478 kPa | 957.8 kg/m3
24480 kPa | 957.8 kg/m3
24513 kPa | 957.8 kg/m3
24519 kPa | 957.7 kg/m3
24552 kPa | 957.7 kg/m3
24554 kPa | 957.8 kg/m3
24586 kPa | 957.9 kg/m3
24621 kPa | 958 kg/m3
24626 kPa | 957.9 kg/m3
24661 kPa | 957.9 kg/m3
24696 kPa | 957.9 kg/m3
24737 kPa | 957.9 kg/m3
24771 kPa | 957.9 kg/m3
24806 kPa | 957.9 kg/m3
24840 kPa | 958 kg/m3
24882 kPa | 958 kg/m3
24916 kPa | 958.1 kg/m3
24917 kPa | 958.1 kg/m3
24952 kPa | 958.1 kg/m3 and 958.2 kg/m3
24988 kPa | 958.2 kg/m3
24993 kPa | 958.1 kg/m3
25028 kPa | 958.2 kg/m3
25070 kPa | 958.2 kg/m3
25105 kPa | 958.1 kg/m3
25141 kPa | 958.2 kg/m3
25148 kPa | 958.1 kg/m3
25184 kPa | 958.3 kg/m3
25220 kPa | 958.2 kg/m3
25250 kPa | 958.4 kg/m3
25256 kPa | 958.1 kg/m3
25279 kPa | 958.4 kg/m3
25292 kPa | 958.2 kg/m3
25308 kPa | 958.3 kg/m3
25336 kPa | 958.4 kg/m3
25343 kPa | 958.5 kg/m3
25372 kPa | 958.2 kg/m3 and 958.5 kg/m3
25402 kPa | 958.5 kg/m3
25415 kPa | 958.3 kg/m3
25452 kPa | 958.3 kg/m3
25488 kPa | 958.3 kg/m3
25525 kPa | 958.4 kg/m3
25530 kPa | 958.5 kg/m3
25560 kPa | 958.5 kg/m3
25570 kPa | 958.4 kg/m3
25590 kPa | 958.5 kg/m3
25607 kPa | 958.6 kg/m3
25626 kPa | 958.5 kg/m3
25645 kPa | 958.4 kg/m3
25656 kPa | 958.6 kg/m3
25687 kPa | 958.6 kg/m3
25692 kPa | 958.5 kg/m3
25723 kPa | 958.6 kg/m3
25730 kPa | 958.5 kg/m3
25752 kPa | 958.6 kg/m3
25767 kPa | 958.6 kg/m3
25788 kPa | 958.7 kg/m3
25805 kPa | 958.7 kg/m3
25819 kPa | 958.6 kg/m3
25843 kPa | 958.6 kg/m3
25849 kPa | 958.6 kg/m3
25885 kPa | 958.7 kg/m3
25888 kPa | 958.5 kg/m3
25915 kPa | 958.7 kg/m3
25927 kPa | 958.6 kg/m3
25946 kPa | 958.8 kg/m3
25966 kPa | 958.7 kg/m3
25983 kPa | 958.8 kg/m3
26012 kPa | 958.8 kg/m3
26014 kPa | 958.9 kg/m3
26045 kPa | 958.9 kg/m3
26050 kPa | 958.8 kg/m3
26082 kPa | 958.8 kg/m3
26090 kPa | 958.7 kg/m3
26114 kPa | 958.9 kg/m3
26136 kPa | 958.8 kg/m3
26145 kPa | 958.8 kg/m3
26176 kPa | 958.9 kg/m3 and 958.8 kg/m3
26214 kPa | 958.9 kg/m3
26217 kPa | 958.9 kg/m3
26244 kPa | 959 kg/m3
26256 kPa | 958.9 kg/m3
26282 kPa | 958.9 kg/m3
26296 kPa | 959 kg/m3
26313 kPa | 959 kg/m3
26343 kPa | 958.9 kg/m3
26345 kPa | 959 kg/m3
26383 kPa | 959 kg/m3 and 959.1 kg/m3
26414 kPa | 958.9 kg/m3
26430 kPa | 959 kg/m3
26447 kPa | 959 kg/m3
26470 kPa | 959 kg/m3
26485 kPa | 959.1 kg/m3
26510 kPa | 959 kg/m3
26518 kPa | 959.2 kg/m3
26549 kPa | 959.1 kg/m3
26550 kPa | 959.2 kg/m3
26583 kPa | 959.2 kg/m3
26597 kPa | 959.3 kg/m3
26622 kPa | 959.1 kg/m3
26638 kPa | 959.2 kg/m3
26654 kPa | 959.2 kg/m3
26679 kPa | 959.1 kg/m3
26693 kPa | 959.1 kg/m3
26725 kPa | 959.3 kg/m3
26729 kPa | 959.2 kg/m3
26758 kPa | 959.2 kg/m3
26771 kPa | 959.3 kg/m3
26791 kPa | 959.3 kg/m3
26812 kPa | 959.3 kg/m3
26831 kPa | 959.4 kg/m3
26863 kPa | 959.2 kg/m3
26864 kPa | 959.3 kg/m3
26898 kPa | 959.4 kg/m3
26905 kPa | 959.3 kg/m3
26939 kPa | 959.3 kg/m3
26949 kPa | 959.3 kg/m3
26999 kPa | 959.3 kg/m3
27006 kPa | 959.3 kg/m3
27037 kPa | 959.4 kg/m3
27071 kPa | 959.4 kg/m3
27081 kPa | 959.5 kg/m3
27111 kPa | 959.5 kg/m3
27114 kPa | 959.5 kg/m3
27145 kPa | 959.5 kg/m3
27148 kPa | 959.5 kg/m3
27186 kPa | 959.5 kg/m3
27189 kPa | 959.6 kg/m3
27221 kPa | 959.5 kg/m3
27224 kPa | 959.6 kg/m3
27256 kPa | 959.5 kg/m3
27258 kPa | 959.6 kg/m3
27290 kPa | 959.6 kg/m3
27300 kPa | 959.5 kg/m3
27332 kPa | 959.6 kg/m3
27335 kPa | 959.7 kg/m3
27367 kPa | 959.7 kg/m3
27371 kPa | 959.6 kg/m3
27402 kPa | 959.6 kg/m3
27408 kPa | 959.7 kg/m3
27444 kPa | 959.6 kg/m3
27447 kPa | 959.7 kg/m3
27479 kPa | 959.7 kg/m3
27514 kPa | 959.7 kg/m3
27556 kPa | 959.7 kg/m3
27590 kPa | 959.8 kg/m3
27592 kPa | 959.8 kg/m3
27618 kPa | 959.8 kg/m3
27627 kPa | 959.8 kg/m3
27670 kPa | 959.9 kg/m3
27698 kPa | 959.7 kg/m3
27742 kPa | 959.8 kg/m3
27786 kPa | 959.9 kg/m3
27822 kPa | 959.8 kg/m3
27858 kPa | 959.9 kg/m3
27877 kPa | 959.9 kg/m3
27902 kPa | 960.1 kg/m3
27910 kPa | 960 kg/m3
27939 kPa | 960 kg/m3
27975 kPa | 959.9 kg/m3
28012 kPa | 959.9 kg/m3
28056 kPa | 960 kg/m3
28087 kPa | 960.2 kg/m3
28093 kPa | 960 kg/m3
28116 kPa | 960.2 kg/m3
28137 kPa | 960.1 kg/m3
28144 kPa | 960.1 kg/m3
28175 kPa | 960.1 kg/m3
28178 kPa | 960.2 kg/m3
28207 kPa | 960.1 kg/m3
28213 kPa | 960.2 kg/m3
28236 kPa | 960.1 kg/m3
28251 kPa | 960.2 kg/m3
28269 kPa | 960.2 kg/m3
28288 kPa | 960.2 kg/m3
28298 kPa | 960.3 kg/m3
28327 kPa | 960.2 kg/m3
28333 kPa | 960.2 kg/m3
28361 kPa | 960.4 kg/m3
28370 kPa | 960.2 kg/m3
28389 kPa | 960.3 kg/m3
28416 kPa | 960.3 kg/m3
28418 kPa | 960.3 kg/m3
28453 kPa | 960.3 kg/m3
28454 kPa | 960.3 kg/m3
28476 kPa | 960.5 kg/m3
28492 kPa | 960.3 kg/m3
28511 kPa | 960.3 kg/m3
28538 kPa | 960.4 kg/m3
28540 kPa | 960.4 kg/m3
28576 kPa | 960.4 kg/m3
28605 kPa | 960.4 kg/m3

— the NIST ThermoML archive (doi:10.1021/je060271a)
